According to US12590096B2, “Imidazo[2,1-f][1,2,4]triazin-4-amine as TLR8 agonists” (BeOne Medicines | GmbH, priority 2019, dated 2026):
pEC50: −log10 of the molar value. Where two headings read alike, the source gives them in different places.

Target: T1, human TLR 8 protein in HEK-blue hTLR 8 tool cell line (Homo sapiens, UniProt Q9NR97)
T1 construct: expressed in transfected cells; host or cells: HEK293 (HEK-Blue hTLR8)
T1 sequence (Q9NR97 27-1041): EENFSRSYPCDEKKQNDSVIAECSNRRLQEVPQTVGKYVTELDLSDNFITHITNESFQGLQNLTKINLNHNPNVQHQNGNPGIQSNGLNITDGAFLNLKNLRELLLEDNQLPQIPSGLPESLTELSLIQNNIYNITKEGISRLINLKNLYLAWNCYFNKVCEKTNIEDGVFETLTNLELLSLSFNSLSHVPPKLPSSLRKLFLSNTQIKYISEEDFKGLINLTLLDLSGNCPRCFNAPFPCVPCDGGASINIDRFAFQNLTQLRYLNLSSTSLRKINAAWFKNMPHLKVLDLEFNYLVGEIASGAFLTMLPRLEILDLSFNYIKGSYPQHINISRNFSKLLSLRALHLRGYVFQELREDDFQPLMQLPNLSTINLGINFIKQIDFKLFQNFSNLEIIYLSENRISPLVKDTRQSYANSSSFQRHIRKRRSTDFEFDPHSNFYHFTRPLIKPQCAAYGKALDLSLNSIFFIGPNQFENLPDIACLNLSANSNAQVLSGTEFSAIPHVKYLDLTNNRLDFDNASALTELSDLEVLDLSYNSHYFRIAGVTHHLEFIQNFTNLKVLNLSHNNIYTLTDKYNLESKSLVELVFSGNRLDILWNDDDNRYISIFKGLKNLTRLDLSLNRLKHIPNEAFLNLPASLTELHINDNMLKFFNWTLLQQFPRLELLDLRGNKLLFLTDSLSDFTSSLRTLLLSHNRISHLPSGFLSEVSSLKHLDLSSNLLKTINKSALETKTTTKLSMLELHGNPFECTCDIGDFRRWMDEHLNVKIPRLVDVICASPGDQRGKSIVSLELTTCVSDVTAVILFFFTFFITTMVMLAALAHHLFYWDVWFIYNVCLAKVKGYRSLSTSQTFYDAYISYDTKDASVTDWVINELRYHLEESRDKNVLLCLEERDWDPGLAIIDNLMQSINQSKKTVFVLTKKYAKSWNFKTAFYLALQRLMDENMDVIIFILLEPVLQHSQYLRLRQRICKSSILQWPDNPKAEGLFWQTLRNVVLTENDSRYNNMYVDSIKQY
Assay: TLR8 stimulation determined by HEK-Blue Detection (NF-κB/SEAP reporter)
Assay type: cell-based
Settings: HEK-Blue hTLR8 cells, 16 h incubation; for EC50: unit μM, read-out: EC50; for pEC50: relative to maximum activation by Resiquimod or motolimod, read-out: EC50 (nmol)
Source text: TLR8 Stimulation Determined by HEK-Blue Detection
This assay was designed to study the stimulation of human TLR 8 protein in HEK-blue hTLR 8 tool cell line by monitoring the activation of NF-κB. HEK-blue hTLR8 cells were obtained by co-transfection of hTLR8 gene and optimized secretory embryonic alkaline phosphatase (SEAP) reporter gene into HEK293 cells. SEAP reporter gene was put under the control of […] minimal promoter fused with five NF-κB and AP-1-binding sites. NF-κB and AP-1 were activated by stimulation with TLR 8 ligand, thus inducing the expression of SEAP. The level of SEAP can be easily determined by HEK-Blue Detection (a cell culture medium that allows real-time detection of SEAP). HEK-Blue Detection comprises all nutrients needed for cell growth and specific SEAP color substrates. The hydrolysis of substrate by SEAP produces purple/blue color which can be measured by spectrophotometer.
When growing to 50-80% confluence, HEK-Blue hTLR7/8 cells were plated into 96-well plates (costar 3599) at a density of 40,000 cells/well. Then, the compound serially diluted at 10 points with a final concentration ranging from 1 nM to 10 μm in 0.1% DMSO/HEK-Blue Detection was added. The plates were then incubated in 5% CO2 at 37° C. for 16 h. Optical density at 620-655 nm was read on BMG PHERAstar FSX instrument. The EC50 of each compound was determined by calculating the maximum activation percentage identified using Resiquimod or motolimod.
The EC50 of the tested compound of the present invention is as follows.

Row | Compound | EC50 | pEC50
1 | CCC[C@H](C)Oc1nc(N)c2ncc(/C=C3/CCNCC3(C)C)n2n1 [Compound B52, (S)-7-((3,3-dimethylpiperidin-4-ylidene)methyl)-2-(pent-2-yloxy)imidazo[2,1-f][1,2,4]triazin-4-amine] | > 10 µM | 
2 | CCCC(C)Oc1nc(N)c2ncc(CC3CCOCC3)n2n1 (stereo not drawn) [Compound B36, 2-(pent-2-yloxy)-7-((tetrahydro-2H-pyran-4-yl)methyl)imidazo[2,1-f][1,2,4]triazin-4-amine] |  | < 5.00
3 | CCCCOc1nc(N)c2ncc(CCC3CCNCC3)n2n1 [Compound B3, 2-butoxy-7-(2-(piperidin-4-yl)ethyl)imidazo[2,1-f][1,2,4]triazin-4-amine] |  | 6.46
4 | CCCCOc1nc(N)c2ncc(CC3CCNCC3)n2n1 [Compound B1, 2-butoxy-7-(piperidin-4-ylmethyl)imidazo[2,1-f][1,2,4]triazin-4-amine] |  | 7.29
5 | CCC[C@H](C)Oc1nc(N)c2ncc(NC3CCNCC3)n2n1 [Compound B37, (S)-2-(pent-2-yloxy)-N7-(piperidin-4-yl)imidazo[2,1-f][1,2,4]triazin-4,7-diamine] |  | < 5.00
6 | CCC[C@H](C)Oc1nc(N)c2ncc(CC3CCNCC3(F)F)n2n1 (stereo partly drawn) [Compound B57, 7-((3,3-difluorpiperidin-4-yl)methyl)-2-(((S)-pent-2-yl)oxy)imidazo[2,1-f][1,2,4]triazin-4-amine] | > 10 µM | 
7 | CCCC(C)Oc1nc(N)c2ncc(CN3CCNC[C@H]3C)n2n1 (stereo partly drawn) [Compound B18, 7—(((R)-2-methylpiperazin-1-yl)methyl)-2-(pent-2-yloxy)imidazo[2,1-f][1,2,4]triazin-4-amine] |  | 5.57
8 | CCCC(C)Oc1nc(N)c2ncc(CC3CCCCC3)n2n1 (stereo not drawn) [Compound B29, 7-(cyclohexylmethyl)-2-(pent-2-yloxy)imidazo[2,1-f][1,2,4]triazin-4-amine] |  | < 5.00
9 | CCCC(C)Oc1nc(N)c2ncc(C3(O)CC4(CCNCC4)C3)n2n1 (stereo not drawn) [Compound B24, 2-(4-amino-2-(pent-2-yloxy)imidazo[2,1-f][1,2,4]triazin-7-yl)-7-azaspiro[3.5]nona-2-ol] |  | < 5.00
10 | CCC[C@H](C)Oc1nc(N)c2ncc(CC3CCNCC3(C)C)n2n1 (stereo partly drawn) [Compound B53, 7-((3,3-dimethylpiperidin-4-yl)methyl)-2-(((S)-pent-2-yl)oxy)imidazol[2,1-f][1,2,4]triazin-4-amine] |  | 5.41
11 | Nc1nc(OCC2CCOC2)nn2c(CC3CCNCC3)cnc12 (stereo not drawn) [Compound B46, 7-(piperidin-4-ylmethyl)-2-((tetrahydrofuran-3-yl)methoxy)imidazo[2,1-f][1,2,4]triazin-4-amine] |  | < 5.00
12 | CCCCCc1nc(N)c2ncc(CC3CCNCC3)n2n1 [Compound B11, 2-pentyl-7-(piperidin-4-ylmethyl)imidazo[2,1-f][1,2,4]triazin-4-amine] |  | 5.75
13 | CCCC(C)Oc1nc(N)c2ncc(CN3CCC(CNC)CC3)n2n1 (stereo not drawn) [Compound B22] |  | < 5.00
14 | CCCC(C)Oc1nc(N)c2ncc(CN3CCN[C@H](C)C3)n2n1 (stereo partly drawn) [Compound B15, 7—(((R)-3-methylpiperazin-1-yl)methyl)-2-(pent-2-yloxy)imidazo[2,1-f][1,2,4]triazin-4-amine] |  | 5.97
15 | CCCC(C)Oc1nc(N)c2ncc(CN3CCNC[C@@H]3C)n2n1 (stereo partly drawn) [Compound B17, 7—(((S)-2-methylpiperazin-1-yl)methyl)-2-(pent-2-yloxy)imidazo[2,1-f][1,2,4]triazin-4-amine] |  | 5.40
16 | CCC[C@H](C)Oc1nc(N)c2ncc(C=C3CC4CCC(C3)N4)n2n1 [Compound B55, 7-((8-azabicyclo[3.2.1]oct-3-ylene)methyl)-2-(((S)-pent-2-yl)oxy)imidazo[2,1-f][1,2,4]triazin-4-amine] | > 10 µM | 

The next lines start with the values.

Row | EC50 | pEC50 | Compound
17 |  | 7.00 | CCC[C@H](C)Oc1nc(N)c2ncc(CC3CCNC3)n2n1 (stereo partly drawn) [Compound B26, 2—(((S)-pent-2-yl)oxy)-7-(pyrrolidin-3-ylmethyl)imidazo[2,1-f][1,2,4]triazin-4-amine]
18 |  | 6.04 | CCC[C@H](C)Oc1nc(N)c2ncc(CC3CCNCC3C)n2n1 (stereo partly drawn) [Compound B60, 7-((3-methylpiperidin-4-yl)methyl)-2-(((S)-pent-2-yl)oxy)imidazo[2,1-f][1,2,4]triazin-4-amine]
19 |  | 7.66 | CCC[C@H](C)Oc1nc(N)c2ncc(CC3CCN(CC(C)NC)CC3)n2n1 (stereo partly drawn) [Compound B54, 7-((1-(2-(methylamino)propyl)piperidin-4-yl)methyl)-2-(((S)-pent-2-yl)oxy)imidazo[2,1-f][1,2,4]triazin-4-amine]
20 |  | 6.12 | CCC[C@H](C)Oc1nc(N)c2ncc(C[C@H]3[C@@H]4CNC[C@@H]43)n2n1 [Compound B33, 7-(((1R,5S,6s)-3-azabicyclo[3.1.0]hex-6-yl)methyl)-2-(((S)-pent-2-yl)oxy)imidazo[2,1-f][1,2,4]triazin-4-amine]
21 |  | 7.08 | CCCC(CCC)Oc1nc(N)c2ncc(CC3CCNCC3)n2n1 [Compound B47, 2-(hept-4-yloxy)-7-(piperidin-4-ylmethyl)imidazo[2,1-f][1,2,4]triazin-4-amine]
22 |  | 6.86 | CCC[C@H](C)Oc1nc(N)c2ncc(CC3CCN(CC4CCNCC4)CC3)n2n1 [Compound B14, (S)-2-(pent-2-yloxy)-7-((1-(piperidin-4-ylmethyl)piperidin-4-yl)methyl)imidazo[2,1-f][1,2,4]triazin-4-amine]
23 |  | 7.66 | CCC[C@H](C)Oc1nc(N)c2ncc(CC3CCN(C)CC3)n2n1 [Compound B32, (S)-7-((1-methylpiperidin-4-yl)methyl)-2-(pent-2-yloxy)imidazo[2,1-f][1,2,4]triazin-4-amine]
24 |  | 6.41 | CCC[C@H](C)Oc1nc(N)c2ncc(CC3CCN(C4CCNC4)CC3)n2n1 (stereo partly drawn) [Compound B13, 2—(((S)-pent-2-yl)oxy)-7-((1-(pyrrolidin-3-yl)piperidin-4-yl)methyl)imidazo[2,1-f][1,2,4]triazin-4-amine]
25 |  | 6.99 | CCC[C@H](C)Oc1nc(N)c2ncc(CC3CCC(NC)CC3)n2n1 (stereo partly drawn) [Compound B31, (S)-7-((4-(methylamino)cyclohexyl)methyl)-2-(pent-2-yloxy)imidazo[2,1-f][1,2,4]triazin-4-amine]
26 |  | 6.39 | CCC[C@H](C)Oc1nc(N)c2ncc(CC3CCCCN3)n2n1 (stereo partly drawn) [Compound B51, 2-(((S)-pent-2-yl)oxy)-7-(piperidin-2-ylmethyl)imidazo[2,1-f][1,2,4]triazin-4-amine]
27 |  | 7.44 | CCC[C@H](C)Oc1nc(N)c2ncc(CC3CCCN3)n2n1 (stereo partly drawn) [Compound B42, 2-(((S)-pent-2-yl)oxy)-7-(pyrrolidin-2-ylmethyl)imidazo[2,1-f][1,2,4]triazin-4-amine]
28 |  | 6.84 | CCC[C@H](C)Oc1nc(N)c2ncc(CC3CCN(C4CCNCC4)CC3)n2n1 [Compound B23, (S)-7-([1,4′-bipiperidin]-4-ylmethyl)-2-(pent-2-yloxy)imidazo[2,1-f][1,2,4]triazin-4-amine]
29 |  | 6.04 | CCCC(C)Nc1nc(N)c2ncc(CC3CCNCC3)n2n1 (stereo not drawn) [Compound B5, N2-(pent-2-yl)-7-(piperidin-4-ylmethyl)imidazo[2,1-f][1,2,4]triazin-2,4-diamine]
30 |  | 6.00 | CCC[C@H](C)Oc1nc(N)c2ncc(CC34CC(N)(C3)C4)n2n1 [Compound B40, (S)-7-((3-aminobicyclo[1.1.1]pent-1-yl)methyl)-2-(pent-2-yloxy)imidazo[2,1-f][1,2,4]triazin-4-amine]
